Laboratory results: US20090082406A1, “Cancer Therapy” (National Health Research Institutes, priority 2004, published 2009)

Experiments:
p27^kip1 = assay: Western blotting assay of p27^kip1 in DBTRG 05MG cells; type: cell-based, human; details: 3 days, lovastatin (1 μM) alone
Method: (§1) Cell cycle-regulating proteins, cyclin-dependent kinase 2 (CDK-2), cyclin A, Rb protein, and p27^kip1 were tested to determine the effect of lovastain and troglitazone on regulating the cell cycle. Note that p27^kip1 is a universal CDK inhibitor and can modulate the drug resistance of cancer cells (Lloyd, R. V., Am. J. Pathol. 1999, 154: 313-323). Rb binds to many proteins, including several important gene regulatory proteins. Its binding capacity depends on its state of phosphoration. When Rb is dephosphorated, it binds to a set of regulatory proteins (e.g., E2F-1) that favor cell proliferation; and when phosphorated, it releases these proteins, thereby allowing them to act. […] The concentrations of cyclin-dependent kinase 2 (CDK-2), cyclin A, p27^kip1, Rb protein, and E2F-1 were determined by the Western blotting assay. Briefly, whole cell lysates were prepared with a radioimmunoprecipitation buffer supplemented with protease inhibitors (Sigma). The lysates were subjected to a sodium dodecylsulfate-polyacrylamide gel electrophoresis and transferred to polyvinylidene difluoride membranes (Bio-Rad) by electroblotting. After having been blocked for 1 hour at room temperature, the membranes were probed with a primary antibody overnight at 4° C. and then with a horseradish peroxidase-conjugated secondary antibody for 1 hour. […]

E2F-1 = assay: Western blotting assay of E2F-1 in DBTRG 05MG cells; type: cell-based, human; details: 3 days, lovastatin (1 μM) alone
Method: as §1

[1] = system: cyclin-dependent kinase 2 (CDK-2); assay: Western blotting assay of CDK-2 in DBTRG 05MG cells; type: cell-based, human; details: 3 days, lovastatin (1 μM) alone
Method: as §1

Rb protein = assay: Western blotting assay of Rb and phosphor-Rb (Ser807/811) in DBTRG 05MG cells; type: cell-based, human; details: 3 days, lovastatin (1 μM) alone
Method: as §1

[2] = system: DBTRG 05MG cells (human glioblastoma cells); assay: sulforhodamine assay of cell numbers, DBTRG 05MG cells; type: cell-based; details: 6 days
Method: DBTRG 05MG cells (human glioblastoma cells) were treated for 6 days with 0.5 μM of lovastatin (Clabiochem) alone and 10 μM of troglitazone (Clabiochem) alone. Cell numbers were then measured by the sulforhodamine assay (see, e.g., Rubinstein, L. V. et al., J. Natl. Cancer Institute, 1990, 82: 113).
The same cells were also treated with combinations of lovastatin and troglitazone at various ratios. The combination index values were calculated.
DBTRG 05MG cells were treated for 6 days with lovastatin (0.5 μM), troglitazone (10 μM), and mevalonolacetone (100 μM), the downstream product of […]. Cell numbers were measured by the sulforhodamine assay (see, e.g., Rubinstein, L. V. et al., J. Natl. Cancer Institute, 1990, 82: 113).

cyclin A = assay: Western blotting assay of cyclin A in DBTRG 05MG cells; type: cell-based, human; details: 3 days, lovastatin (1 μM) alone
Method: as §1

In the case of `CC[C@H](C)C(=O)O[C@H]1C[C@@H](C)C=C2C=C[C@H](C)[C@H](CC[C@@H]3C[C@@H](O)CC(=O)O3)[C@H]21` [lovastatin], the “level of p27^kip1” value (p27^kip1) is reported as “little or no change”, the “level of E2F-1” value (E2F-1) is reported as “little or no change” and the “level of CDK-2” value [1] is reported as “little or no change”. The “level of Rb” value (Rb protein) was “little or no change”, the cell number decrease ([2]; 0.5 μM of lovastatin alone) was 9.7% and the “level of cyclin A” value (cyclin A) was “little or no change”.
In the case of `C[C@@]1(O)CCOC(=O)C1` [mevalonolacetone], the “effect of added mevalonolacetone on the synergistic effect of lovastatin and troglitazone on cell numbers” value ([2]; lovastatin (0.5 μM), troglitazone (10 μM), mevalonolacetone (100 μM)) is reported as “significantly attenuated”.
For `Cc1c(C)c2c(c(C)c1O)CCC(C)(COc1ccc(CC3SC(=O)NC3=O)cc1)O2` (centres unmarked) [troglitazone], the cell number decrease ([2]; 10 μM of troglitazone alone) was 11%.
